Source: PMC5218480 (PLoS ONE, 2017)

Tested on: MV-4-11 cells
Assay: Gene expression microarray analysis (Affymetrix PrimeView) and GSEA
Assay type: cell-based, human
Set-up: RFU PODN (11730768_x_at) / Fold change /veh PODN (11730768_x_at) / RFU LINC00158 (11744669_a_at) / Fold change /veh LINC00158 (11744669_a_at) / RFU DUSP10 (11751237_a_at) / Fold change /veh DUSP10 (11751237_a_at) / RFU ID3 (11757404_x_at) / Fold change /veh ID3 (11757404_x_at) / RFU PLEKHG5 (11737974_s_at) / Fold change /veh PLEKHG5 (11737974_s_at) / RFU LRRC4B (11730491_at) / Fold change /veh LRRC4B (11730491_at) / RFU GIMAP4 (11747438_a_at) / Fold change /veh GIMAP4 (11747438_a_at) / RFU KRT8 (11758183_x_at) / Fold change /veh KRT8 (11758183_x_at) / RFU CNN1 (11734310_a_at) / Fold change /veh CNN1 (11734310_a_at) / RFU VPS37D (11726825_at) / Fold change /veh VPS37D (11726825_at) / RFU C10orf10 (11716522_x_at) / Fold change /veh C10orf10 (11716522_x_at) / RFU KIR2DL2 /// KIR2DL4 /// KIR2DL5A /// KIR2DL5B /// KIR2DS1 /// KIR2DS2 /// KIR2DS3 /// KIR2DS4 /// KIR3DL3 /// KIR3DL3 /// KIR3DS1 (11738374_at) / Fold change /veh KIR2DL2 /// KIR2DL4 /// KIR2DL5A /// KIR2DL5B /// KIR2DS1 /// KIR2DS2 /// KIR2DS3 /// KIR2DS4 /// KIR3DL3 /// KIR3DL3 /// KIR3DS1 (11738374_at) / RFU C1QL1 (11718748_at) / Fold change /veh C1QL1 (11718748_at) / RFU TMPRSS4 (11747572_a_at) / Fold change /veh TMPRSS4 (11747572_a_at) / RFU HAMP (11756126_x_at) / Fold change /veh HAMP (11756126_x_at) / RFU RNFT2 (11725882_a_at) / Fold change /veh RNFT2 (11725882_a_at) / RFU NR4A2 (11747474_a_at) / Fold change /veh NR4A2 (11747474_a_at) / RFU ABCC12 (11746883_a_at) / Fold change /veh ABCC12 (11746883_a_at) / RFU TMEM136 (11760407_x_at) / Fold change /veh TMEM136 (11760407_x_at) / RFU CLDN22 /// WWC2 (11732394_at) / Fold change /veh CLDN22 /// WWC2 (11732394_at) / RFU HLA-DPB1 (11760878_x_at) / Fold change /veh HLA-DPB1 (11760878_x_at) / RFU SPINT1 (11716480_a_at) / Fold change /veh SPINT1 (11716480_a_at) / RFU GAP43 (11754022_s_at) / Fold change /veh GAP43 (11754022_s_at) / RFU A4GNT (11735810_at) / Fold change /veh A4GNT (11735810_at) / RFU PRB3 (11715151_x_at) / Fold change /veh PRB3 (11715151_x_at) / RFU TUBB4B (11761932_at) / Fold change /veh TUBB4B (11761932_at) / RFU CAPN14 (11732068_a_at) / Fold change /veh CAPN14 (11732068_a_at) / RFU TMCC2 (11721928_a_at) / Fold change /veh TMCC2 (11721928_a_at) / RFU IRGQ (11745062_a_at) / Fold change /veh IRGQ (11745062_a_at) / RFU FAM174B (11720279_a_at) / Fold change /veh FAM174B (11720279_a_at) / RFU TMPRSS4 (11748680_a_at) / Fold change /veh TMPRSS4 (11748680_a_at) / RFU FAM212B (11763350_a_at) / Fold change /veh FAM212B (11763350_a_at) / RFU PLEKHG5 (11743358_a_at) / Fold change /veh PLEKHG5 (11743358_a_at) / RFU ZSCAN30 (11745921_a_at) / Fold change /veh ZSCAN30 (11745921_a_at) / RFU CMKLR1 (11741424_a_at) / Fold change /veh CMKLR1 (11741424_a_at) / RFU LOC101060620 /// MAPK8IP1 (11723275_at) / Fold change /veh LOC101060620 /// MAPK8IP1 (11723275_at) / RFU SPTSSB (11747773_x_at) / Fold change /veh SPTSSB (11747773_x_at) / RFU PRSS12 (11739890_at) / Fold change /veh PRSS12 (11739890_at) / RFU BIN1 (11741810_x_at) / Fold change /veh BIN1 (11741810_x_at) / RFU WNT11 (11732464_a_at) / Fold change /veh WNT11 (11732464_a_at) / RFU C10orf10 (11716521_a_at) / Fold change /veh C10orf10 (11716521_a_at) / RFU C5orf56 (11738089_at) / Fold change /veh C5orf56 (11738089_at) / RFU CYB561 (11721691_x_at) / Fold change /veh CYB561 (11721691_x_at) / RFU ANKRD19P (11752326_a_at) / Fold change /veh ANKRD19P (11752326_a_at) / RFU OR2T12 /// OR2T33 /// OR2T8 (11738714_s_at) / Fold change /veh OR2T12 /// OR2T33 /// OR2T8 (11738714_s_at) / RFU VCAN (11748164_a_at) / Fold change /veh VCAN (11748164_a_at) / RFU JSRP1 (11732532_at) / Fold change /veh JSRP1 (11732532_at) / RFU KRTAP10-11 (11738290_x_at) / Fold change /veh KRTAP10-11 (11738290_x_at) / RFU MYO3A (11730013_a_at) / Fold change /veh MYO3A (11730013_a_at) / RFU EBF3 (11725865_a_at) / Fold change /veh EBF3 (11725865_a_at) / RFU CAMK2N1 (11719241_x_at) / Fold change /veh CAMK2N1 (11719241_x_at) / RFU C5orf56 (11738088_a_at) / Fold change /veh C5orf56 (11738088_a_at) / RFU OLFML3 (11715873_a_at) / Fold change /veh OLFML3 (11715873_a_at) / RFU LOC100653217 /// NTM (11731650_a_at) / Fold change /veh LOC100653217 /// NTM (11731650_a_at) / RFU MAPK11 (11762145_a_at) / Fold change /veh MAPK11 (11762145_a_at) / RFU FIZ1 (11724087_x_at) / Fold change /veh FIZ1 (11724087_x_at) / RFU OASL (11726364_x_at) / Fold change /veh OASL (11726364_x_at) / RFU SOX15 (11748057_x_at) / Fold change /veh SOX15 (11748057_x_at) / RFU CD79A (11719716_a_at) / Fold change /veh CD79A (11719716_a_at) / RFU HIST1H1D (11736915_at) / Fold change /veh HIST1H1D (11736915_at) / RFU CASKIN2 (11723855_a_at) / Fold change /veh CASKIN2 (11723855_a_at) / RFU LOC730098 (11760151_x_at) / Fold change /veh LOC730098 (11760151_x_at) / RFU OR4N2 (11742367_at) / Fold change /veh OR4N2 (11742367_at) / RFU PRRT2 (11749266_a_at) / Fold change /veh PRRT2 (11749266_a_at) / RFU SNX32 (11753110_a_at) / Fold change /veh SNX32 (11753110_a_at) / RFU CDHR5 (11726645_a_at) / Fold change /veh CDHR5 (11726645_a_at) / RFU RCAN1 (11760418_a_at) / Fold change /veh RCAN1 (11760418_a_at) / RFU FAM167A (11723789_a_at) / Fold change /veh FAM167A (11723789_a_at) / RFU FAM26E (11764081_at) / Fold change /veh FAM26E (11764081_at) / RFU ISYNA1 (11749810_s_at) / Fold change /veh ISYNA1 (11749810_s_at) / RFU ACY1 (11761880_at) / Fold change /veh ACY1 (11761880_at) / RFU 11764098_at / Fold change /veh 11764098_at / RFU SAMD14 (11745864_x_at) / Fold change /veh SAMD14 (11745864_x_at) / RFU NPB (11741838_a_at) / Fold change /veh NPB (11741838_a_at) / RFU TMPRSS6 (11731388_a_at) / Fold change /veh TMPRSS6 (11731388_a_at) / RFU KRTAP10-2 (11738614_at) / Fold change /veh KRTAP10-2 (11738614_at) / RFU ARHGAP8 /// PRR5-ARHGAP8 (11727945_x_at) / Fold change /veh ARHGAP8 /// PRR5-ARHGAP8 (11727945_x_at) / RFU KRTAP5-7 /// NADSYN1 (11734609_at) / Fold change /veh KRTAP5-7 /// NADSYN1 (11734609_at) / RFU RASL12 (11751679_a_at) / Fold change /veh RASL12 (11751679_a_at) / RFU CDKN2B (11736163_a_at) / Fold change /veh CDKN2B (11736163_a_at) / RFU PRF1 (11729649_at) / Fold change /veh PRF1 (11729649_at) / RFU, ZNF638 /// ZNF638-IT1 / Fold change vs veh, ZNF638 /// ZNF638-IT1 / RFU, PANK3 / Fold change vs veh, PANK3 / RFU, SH3YL1 / Fold change vs veh, SH3YL1 / RFU, ZEB2 / Fold change vs veh, ZEB2 / RFU, NRIP1 / Fold change vs veh, NRIP1 / RFU, PTTG1IP / Fold change vs veh, PTTG1IP / RFU, CAPN2 / Fold change vs veh, CAPN2 / RFU, MED14 / Fold change vs veh, MED14 / RFU, SNORA58 / Fold change vs veh, SNORA58 / RFU, C1orf63 / Fold change vs veh, C1orf63 / RFU, LRRFIP1 / Fold change vs veh, LRRFIP1 / RFU, NDUFAF7 / Fold change vs veh, NDUFAF7 / RFU, SLC12A2 / Fold change vs veh, SLC12A2 / RFU, IBTK / Fold change vs veh, IBTK / RFU, ESF1 / Fold change vs veh, ESF1 / Fold change vs veh, TMEM50B / RFU, TAOK1 / Fold change vs veh, TAOK1 / RFU, ACBD3 / Fold change vs veh, ACBD3 / RFU, TMA16 / Fold change vs veh, TMA16 / RFU, RWDD3 / Fold change vs veh, RWDD3 / RFU, BCAT1 / Fold change vs veh, BCAT1 / RFU, EDEM3 / Fold change vs veh, EDEM3 / RFU, TMEM33 / Fold change vs veh, TMEM33 / RFU, WDR75 / Fold change vs veh, WDR75 / RFU, AHCTF1 / Fold change vs veh, AHCTF1 / RFU, TFRC / Fold change vs veh, TFRC / RFU, ZDHHC17 / Fold change vs veh, ZDHHC17 / RFU, NOM1 / Fold change vs veh, NOM1 / RFU, ARL8B / Fold change vs veh, ARL8B / RFU, ZBTB11 / Fold change vs veh, ZBTB11 / RFU, TAMM41 / Fold change vs veh, TAMM41 / RFU, KIAA1704 /// LOC100996395 / Fold change vs veh, KIAA1704 /// LOC100996395 / RFU, ING1 / Fold change vs veh, ING1 / RFU, TRMT61B / Fold change vs veh, TRMT61B / RFU, FUBP3 / Fold change vs veh, FUBP3 / RFU, TP53 / Fold change vs veh, TP53 / RFU, TNKS2 / Fold change vs veh, TNKS2 / RFU, ZFP14 / Fold change vs veh, ZFP14 / RFU, ACTR2 / Fold change vs veh, ACTR2 / RFU, PPP3R1 / Fold change vs veh, PPP3R1 / RFU, PIK3R1 / Fold change vs veh, PIK3R1 / RFU, HNRNPA1 / Fold change vs veh, HNRNPA1 / RFU, RNF170 / Fold change vs veh, RNF170 / RFU, ZNF28 / Fold change vs veh, ZNF28 / RFU, RNGTT / Fold change vs veh, RNGTT / RFU, OGT / Fold change vs veh, OGT / RFU, BRD1 / Fold change vs veh, BRD1 / RFU, MARS / Fold change vs veh, MARS / RFU, ZNF655 / Fold change vs veh, ZNF655 / RFU, FAHD1 / Fold change vs veh, FAHD1 / RFU, BDP1 / Fold change vs veh, BDP1 / RFU, LRRCC1 / Fold change vs veh, LRRCC1 / RFU, ARID1A / Fold change vs veh, ARID1A / RFU, ZNF146 / Fold change vs veh, ZNF146 / RFU, ZNF330 / Fold change vs veh, ZNF330 / RFU, GPN3 / Fold change vs veh, GPN3 / RFU, C9orf123 / Fold change vs veh, C9orf123 / RFU, N4BP2L2 / Fold change vs veh, N4BP2L2 / RFU, ARFIP1 / Fold change vs veh, ARFIP1 / RFU, FAM179B / Fold change vs veh, FAM179B / RFU, BCL10 / Fold change vs veh, BCL10 / RFU, UHRF1BP1L / Fold change vs veh, UHRF1BP1L / RFU, BET1 / Fold change vs veh, BET1 / RFU, CNOT2 / Fold change vs veh, CNOT2 / RFU, ZNF268 / Fold change vs veh, ZNF268 / Fold change vs veh, ZNF507 / RFU, DGCR2 / Fold change vs veh, DGCR2 / RFU, WDSUB1 / Fold change vs veh, WDSUB1 / Fold change vs veh, HSP90B1 /// MIR3652 / RFU, ADSS / Fold change vs veh, ADSS / RFU, GK / Fold change vs veh, GK / RFU, ZNF148 / Fold change vs veh, ZNF148 / RFU, TAF9 / Fold change vs veh, TAF9 / RFU, SLC1A5 / Fold change vs veh, SLC1A5 / RFU, SLMO2 / Fold change vs veh, SLMO2 / RFU, ABCC4 / Fold change vs veh, ABCC4 / RFU, LOC101060439 /// RAP1B / Fold change vs veh, LOC101060439 /// RAP1B / RFU, RFX7 / Fold change vs veh, RFX7 / RFU, GTPBP10 / Fold change vs veh, GTPBP10 / RFU, CNEP1R1 / Fold change vs veh, CNEP1R1 / RFU, BIVM-ERCC5 /// ERCC5 / Fold change vs veh, BIVM-ERCC5 /// ERCC5 / RFU, ILF3 / Fold change vs veh, ILF3 / RFU 11762660_at / Fold change /veh 11762660_at / RFU VCAN (11757783_s_at) / Fold change /veh VCAN (11757783_s_at) / RFU DDX43 (11728927_at) / Fold change /veh DDX43 (11728927_at) / RFU KRT8 (11758188_x_at) / Fold change /veh KRT8 (11758188_x_at) / RFU NKD1 (11759106_at) / Fold change /veh NKD1 (11759106_at) / RFU SRD5A1 (11742802_a_at) / Fold change /veh SRD5A1 (11742802_a_at) / RFU TPSAB1 /// TPSB2 (11721975_s_at) / Fold change /veh TPSAB1 /// TPSB2 (11721975_s_at) / RFU GSTM3 (11746129_a_at) / Fold change /veh GSTM3 (11746129_a_at) / RFU IL23R (11737362_x_at) / Fold change /veh IL23R (11737362_x_at) / RFU TMEM51 (11727254_a_at) / Fold change /veh TMEM51 (11727254_a_at) / RFU PIWIL2 (11732686_x_at) / Fold change /veh PIWIL2 (11732686_x_at) / RFU ORM1 (11744905_x_at) / Fold change /veh ORM1 (11744905_x_at) / RFU CCDC152 (11743942_at) / Fold change /veh CCDC152 (11743942_at) / RFU ECM1 (11717891_a_at) / Fold change /veh ECM1 (11717891_a_at) / RFU IL23R (11748794_a_at) / Fold change /veh IL23R (11748794_a_at) / RFU TNFAIP8L3 (11732012_x_at) / Fold change /veh TNFAIP8L3 (11732012_x_at) / RFU MBOAT4 (11741988_at) / Fold change /veh MBOAT4 (11741988_at) / RFU 11764193_at / Fold change /veh 11764193_at / RFU TMEM53 (11763286_at) / Fold change /veh TMEM53 (11763286_at) / RFU MAGEB2 (11727129_at) / Fold change /veh MAGEB2 (11727129_at) / RFU TMEM200A (11744735_a_at) / Fold change /veh TMEM200A (11744735_a_at) / RFU CCDC152 (11751479_a_at) / Fold change /veh CCDC152 (11751479_a_at) / RFU FAM211A (11726209_a_at) / Fold change /veh FAM211A (11726209_a_at) / RFU RGS16 (11746705_a_at) / Fold change /veh RGS16 (11746705_a_at) / RFU VCAN (11755009_s_at) / Fold change /veh VCAN (11755009_s_at) / RFU RHOB (11743442_s_at) / Fold change /veh RHOB (11743442_s_at) / RFU RGS16 (11720943_a_at) / Fold change /veh RGS16 (11720943_a_at) / RFU RGS16 (11720944_at) / Fold change /veh RGS16 (11720944_at) / RFU, VPS4B / Fold change vs veh, VPS4B / RFU, CREB1 / Fold change vs veh, CREB1 / RFU, DNAJC13 / Fold change vs veh, DNAJC13 / RFU, GNAQ / Fold change vs veh, GNAQ / RFU, CDK5R1 / Fold change vs veh, CDK5R1 / RFU, ZRANB3 / Fold change vs veh, ZRANB3 / RFU, CUL4A / Fold change vs veh, CUL4A / RFU, CCNY / Fold change vs veh, CCNY / RFU, UFL1 / Fold change vs veh, UFL1 / RFU, COG3 / Fold change vs veh, COG3 / RFU, DIAPH2 / Fold change vs veh, DIAPH2 / RFU, SKA2 / Fold change vs veh, SKA2 / RFU, AFF3 / Fold change vs veh, AFF3 / RFU, LMF1 / Fold change vs veh, LMF1 / RFU, IPO11 / Fold change vs veh, IPO11 / RFU, DFFB / Fold change vs veh, DFFB / RFU, FOXP1 / Fold change vs veh, FOXP1 / RFU, CARD8 / Fold change vs veh, CARD8 / RFU, STRN3 / Fold change vs veh, STRN3 / RFU, ADK / Fold change vs veh, ADK / RFU, RASSF2 / Fold change vs veh, RASSF2 / RFU, WIPF1 / Fold change vs veh, WIPF1 / RFU, LARP1B / Fold change vs veh, LARP1B / RFU, RASA1 / Fold change vs veh, RASA1 / RFU, RB1 / Fold change vs veh, RB1 / RFU, PPFIA1 / Fold change vs veh, PPFIA1 / RFU, MAT2A / Fold change vs veh, MAT2A / RFU, CCT5 / Fold change vs veh, CCT5 / RFU, WDR92 / Fold change vs veh, WDR92 / RFU, CUX1 / Fold change vs veh, CUX1 / RFU, TTC7A / Fold change vs veh, TTC7A / RFU, TMEM135 / Fold change vs veh, TMEM135 / RFU, DEPTOR / Fold change vs veh, DEPTOR / RFU, CPM / Fold change vs veh, CPM / RFU, DNAJB6 / Fold change vs veh, DNAJB6 / RFU, CACNA2D3 / Fold change vs veh, CACNA2D3 / RFU, DTX4 / Fold change vs veh, DTX4 / RFU, TFCP2 / Fold change vs veh, TFCP2 / RFU, GMCL1 /// GMCL1P1 / Fold change vs veh, GMCL1 /// GMCL1P1 / RFU, AEBP2 / Fold change vs veh, AEBP2 / RFU, SNHG1 /// SNORD22 /// SNORD25 /// SNORD26 /// SNORD27 /// SNORD28 /// SNORD29 /// SNORD31 / Fold change vs veh, SNHG1 /// SNORD22 /// SNORD25 /// SNORD26 /// SNORD27 /// SNORD28 /// SNORD29 /// SNORD31 / Fold change (Aza/veh), C12orf56 (ProbeSet 11735607_a_at) / Fold change (ACY-1035/veh), C12orf56 (ProbeSet 11735607_a_at) / Fold change (Aza/veh), FGFR1OP (ProbeSet 11751329_s_at) / Fold change (ACY-1035/veh), FGFR1OP (ProbeSet 11751329_s_at) / Fold change (Aza/veh), VPS36 (ProbeSet 11739960_a_at) / Fold change (ACY-1035/veh), VPS36 (ProbeSet 11739960_a_at) / RFU SYPL1 (11715823_x_at) / Fold change /veh SYPL1 (11715823_x_at) / RFU IGFBP7 (11715501_s_at) / Fold change /veh IGFBP7 (11715501_s_at) / RFU REEP3 (11722064_at) / Fold change /veh REEP3 (11722064_at) / RFU IGLL1 (11728026_x_at) / Fold change /veh IGLL1 (11728026_x_at): dose or concentration left out as unconfirmed
Details: MV-4-11 cells, 48 hours

Nc1ccc(-c2cccs2)cc1NC(=O)c1ccc2c(c1)cc(C1CC1)n2CCN1CCOCC1 [ACY-1035]
RFU DDX43 (11728927_at): 10.07 RFU
